A short description of experiment [1]: Alcoholic fatty liver model, body weight during administration period. It counts as in vivo, SD rats. The settings on record: liquor model. The method, then: (§1) According to their weight, they were randomly divided into vehicle control group (purified water, ig), model control group (liquor, 10 ml·Kg−1), positive control group (bicyclol, 50 mg·Kg−1, ig), folic acid calcium salt high-dose group (4 mg·Kg−1), folic acid calcium salt medium-dose group (2 mg·Kg−1), folic acid calcium salt low-dose group (1 mg·Kg−1), in half female and half male, and 16 rats in each group. Purified water was used as a negative control, and bicyclol (place of origin: Beijing Xiehe Pharmaceutical Factory, specification: 25 mg/tablet, batch number: H20040467) was used as a positive control drug. Route of administration: all were administered by oral gavage. Dosage of administration: 1 mg·Kg−1, 2 mg·Kg−1, and 4 mg·Kg−1. Frequency of administration: once a day for 60 consecutive days.
(§2) Method of administration: administration started at prescribed doses on the day of modeling for 60 consecutive days and ended at the 60th day. At the same time, rats in each group were weighed every other week during administration period to monitor their body weight changes. On the 61st day, rats were dissected and serum was collected for determination of triglyceride (TG), total cholesterol (TC), malondialdehyde (MDA), superoxide dismutase (SOD) and liver histopathologic examination. The brain tissue of rats was taken out, and hippocampus tissue was separated on ice plate, prepared to homogenate with a mass fraction of 10% with purified water, then the homogenate was centrifuged to obtain supernatant. ELISA was used to detect the levels of inflammatory factors TNF-α and IL-1β in hippocampus tissue with continuous spectrum scanning microplate reader.

In experiment [2] the test system is TNF-α. As to the kind of experiment: Alcoholic fatty liver model, TNF-α in hippocampus tissue (ELISA). It counts as in vivo, SD rats. The settings on record: liquor model, n=16. The method, then:
as §1, §2
In general terms: An ELISA detects its analyte on a solid surface through an enzyme-linked reagent.

For experiment [3], the system named is TNF-α. Briefly: LPS-induced inflammatory response in astrocytes, TNF-α release (ELISA). The class given is cell-based, Kunming mice. The settings on record: culture supernatant, LPS 1 μg·ml-1 + substance 10 μg·ml-1, 24 h, n=6. The text has this: (§3) Experiment 9 Inhibition of 5-Methyltetrahydrofolate and Curcumin on LPS-Induced Inflammatory Response in Astrocytes
(§4) The cerebral cortex of Kunming mice at 1˜2 d was taken out under aseptic conditions, washed 3 times with cold PBS after removing residual meninges and blood vessels, prepared into single cell suspension by blowing, centrifuged, the supernatant was discarded, and the precipitant was resuspended in AST basic medium (high-sugar DMEM containing 10% FBS). The suspension was inoculated into a culture flask coated with poly-L-lysine (0.1 mg/ml), and cultured in a CO2 incubator. After 24 h, tissue debris and non-adherent cells were removed by replacing the medium. Afterwards, the medium was replaced every 3 days until the cells reached 80% confluence, then the flask was placed on a constant temperature rotary shaker, where the suspension was centrifuged at 180 r/min, 37° C. for 18 h to remove oligodendrocytes and microglia from the upper layer. Then trypsin digestion was used for subculture. […]
(§5) LPS (1 μg·ml-1), LPS (1 μg·ml-1)+curcumin (10 μg·ml-1), LPS (1 μg·ml-1)+5-MTHF-Ca (10 μg·ml-1); experimental group: LPS (1 μg·ml-1)+curcumin (5 μg·ml-1)+5-MTHF-Ca (5 μg·ml-1). After 24 h, the culture supernatant was collected, and the cytokines IL-6, IL-1β and TNF-α were detected by ELISA.

For the next experiment, the system named is IL-6. As to the kind of experiment: LPS-induced inflammatory response in astrocytes, IL-6 release (ELISA). Particulars: culture supernatant, LPS 1 μg·ml-1 + substance 10 μg·ml-1, 24 h, n=6. It counts as cell-based, Kunming mice.
Text: as §3, §4, §5

The test system of the next experiment is alcohol drinking rats. Briefly: Disappearance and recovery of righting reflex of alcohol drinking rats. It counts as in vivo, SD rats. The settings on record: 30 min before Erguotou 9 ml·Kg−1, n=6. The method, then: Experiment 1 Effect of 5-methyltetrahydrofolate on disappearance and recovery of righting reflex of alcohol drinking rats.
30 SPF-grade SD rats were chosen in half male and half female, and divided into 5 groups with 6 rats in each group, including normal group, model group, positive drug group (Weihe Liver Protectant), 5-methyltetrahydrofolate administration group (4 mg·Kg−1 medium dose group, 8 mg·Kg−1 high dose group, respectively). After fasting for 12 h, the administration group was given Weihe Liver Protectant at 50 mg·kg−1, 5-methyltetrahydrofolate (Jinkang Hexin product) at 4 mg·Kg−1, 5-methyltetrahydrofolate (Jinkang Hexin product) at 8 mg·Kg−1, respectively. […] The intoxication in rats depends on righting reflex disappearing, that is, cover the head of the rat with gauze, and gently place the rat back down in the animal cage. […] The disappearance time and recovery time of the righting reflex in rats after drinking were recorded.

For the compound 5-methyltetrahydrofolate calcium, the Body weight in experiment [1] (1 mg·kg−1·d−1 ig, Week 0, n=16) turned out to be 195.64 g; in experiment [1] (1 mg·kg−1·d−1 ig, Week 1, n=16), 215.16 g; in experiment [1] (1 mg·kg−1·d−1 ig, Week 2, n=16), 282.30 g; in experiment [1] (1 mg·kg−1·d−1 ig, Week 3, n=16), 299.34 g; in experiment [1] (1 mg·kg−1·d−1 ig, Week 4, n=16), 312.99 g; in experiment [1] (1 mg·kg−1·d−1 ig, Week 5, n=16) it was 317.48 g. For the same compound, the Body weight is given as 334.47 g in experiment [1] (1 mg·kg−1·d−1 ig, Week 6, n=16); 355.89 g in experiment [1] (1 mg·kg−1·d−1 ig, Week 7, n=16); 375.85 g in experiment [1] (1 mg·kg−1·d−1 ig, Week 8, n=16); 190.85 g in experiment [1] (2 mg·kg−1·d−1 ig, Week 0, n=16); 219.44 g in experiment [1] (2 mg·kg−1·d−1 ig, Week 1, n=16); 274.69 g in experiment [1] (2 mg·kg−1·d−1 ig, Week 2, n=16). In addition, the Body weight in experiment [1] (2 mg·kg−1·d−1 ig, Week 3, n=16) came out at 293.12 g; in experiment [1] (2 mg·kg−1·d−1 ig, Week 4, n=16), 321.78 g; in experiment [1] (2 mg·kg−1·d−1 ig, Week 5, n=16), 328.10 g; in experiment [1] (2 mg·kg−1·d−1 ig, Week 6, n=16), 345.05 g; in experiment [1] (2 mg·kg−1·d−1 ig, Week 7, n=16) it was 352.90 g; in experiment [1] (2 mg·kg−1·d−1 ig, Week 8, n=16) it was 383.69 g. The Body weight was 196.33 g in experiment [1] (4 mg·kg−1·d−1 ig, Week 0, n=16); 218.24 g in experiment [1] (4 mg·kg−1·d−1 ig, Week 1, n=16); 285.54 g in experiment [1] (4 mg·kg−1·d−1 ig, Week 2, n=16); 296.05 g in experiment [1] (4 mg·kg−1·d−1 ig, Week 3, n=16); 307.43 g in experiment [1] (4 mg·kg−1·d−1 ig, Week 4, n=16); 321.49 g in experiment [1] (4 mg·kg−1·d−1 ig, Week 5, n=16). In addition, the Body weight in experiment [1] (4 mg·kg−1·d−1 ig, Week 6, n=16) is on record as 349.47 g; in experiment [1] (4 mg·kg−1·d−1 ig, Week 7, n=16), 372.49 g; in experiment [1] (4 mg·kg−1·d−1 ig, Week 8, n=16), 392.02 g. Moreover, the “TNF-α in hippocampus tissue” value is 250.39 ± 32.40 μg · g^−1 prot with TNF-α [2] (1 mg·kg−1·d−1 ig 60 d), 241.32 ± 29.32 μg · g^−1 prot with TNF-α [2] (2 mg·kg−1·d−1 ig 60 d) and 220.43 ± 24.34 μg · g^−1 prot with TNF-α [2] (4 mg·kg−1·d−1 ig 60 d). Also, the TNF-α with TNF-α [3] stood at 489.21 ± 10.71 pg/mL. The IL-6 in the experiment on IL-6 amounted to 993.24 ± 52.05 pg/mL.
`CN1c2c([nH]c(N)nc2=O)NCC1CNc1ccc(C(=O)N[C@@H](CCC(=O)O)C(=O)O)cc1` (stereo partly drawn) [5-methyltetrahydrofolate, N-[4-[[(2-amino-1,4,5,6,7,8-hexahydro-4-oxo-5-methyl-(6S), -(6R), and (6R,S)-pteridyl)methyl)amino)toluoyl-glutamic acid]: in the experiment on alcohol drinking rats (4 mg·Kg−1 (medium)), the “Disappearance time (righting reflex)” value amounted to 30.1 ± 14.4 min and the “Recovery time (righting reflex)” value was found to be 78.5 ± 14.5 min. Besides, in the experiment on alcohol drinking rats (8 mg·Kg−1 (high)), the “Disappearance time (righting reflex)” value is 42.3 ± 15.6 min and the “Recovery time (righting reflex)” value stood at 64.1 ± 14.5 min.
